Laboratory results: ChEMBL document CHEMBL1145868, “Small, low nanomolar, noncovalent thrombin inhibitors lacking a group to fill the 'distal binding pocket'” (Bioorg Med Chem Lett, 2003)

Key:
Prothrombin = Prothrombin (Homo sapiens, UniProt P00734); test: Inhibition of thrombin in human plasma; type: cell-free
Homo sapiens [1] = species: Homo sapiens; test: Concentration required to double the human activated partial thromboplastin time in human plasma; type: functional
Trypsin = Trypsin (Homo sapiens, UniProt P07477+P07478+P35030); test: Inhibition of trypsin in human plasma; type: cell-free
Homo sapiens [2] = species: Homo sapiens; test: Protein binding affinity in human plasma, expressed as percent unbound (free); type: functional

| Ki (Prothrombin) | Ki (Trypsin) | Unbound (Homo sapiens [2]) | Compound | Concentration (Homo sapiens [1]) |
| --- | --- | --- | --- | --- |
| 24 nM | 100000 nM | – | Cc1ccc(NS(=O)(=O)Cc2ccccc2)c(=O)n1CC(=O)NCc1cc(Cl)ccc1Cl | 2.7 µM |
| 340 nM | 20000 nM | – | Cc1nc(N)ccc1CNC(=O)Cn1c(C)cc(C(F)(F)F)c(N)c1=O | – |
| – | > 100000 nM | – | Cc1cc(C(F)(F)F)c(N)c(=O)n1CC(=O)NCc1cc(Cl)ccc1OCC(=O)N(C)C | – |
| – | 23000 nM | 15% | CCNC(=O)COc1ccc(Cl)cc1CNC(=O)[C@@H]1CCCN1C(=O)[C@H](N)C1CCCCC1 | 0.41 µM |
| 8.5 nM | 10000 nM | – | CCNC(=O)COc1ccc(Cl)cc1CNC(=O)Cn1c(C)cc(C(F)(F)F)c(N)c1=O | 2.1 µM |
| – | 1800 nM | 6% | Cc1nc(N)ccc1CNC(=O)Cn1c(C)cnc(NCCc2ccccc2)c1=O [L-375378] | 0.41 µM |
| 15 nM | 7100 nM | – | CNC(=O)COc1ccc(Cl)cc1CNC(=O)Cn1c(C)cc(C(F)(F)F)c(N)c1=O | 2.5 µM |
| 7 nM | 20000 nM | – | Cc1ccc(NS(=O)(=O)Cc2ccccc2)c(=O)n1CC(=O)NCc1cccc(Cl)c1 | 2.8 µM |
| 12 nM | 7200 nM | 20% | CCNC(=O)COc1ccc(Cl)cc1CNC(=O)Cn1c(C)cnc(N)c1=O | 1.6 µM |
| 900 nM | 23000 nM | – | Cc1nc(N)ccc1CNC(=O)Cn1c(C)cnc(N)c1=O | – |
| 18 nM | 14000 nM | – | Cc1cc(C(F)(F)F)c(N)c(=O)n1CC(=O)NCc1cc(Cl)ccc1OCC(=O)NCCN(C)C | 1.3 µM |
| – | 29000 nM | 4% | N[C@@H](C(=O)N1CCC[C@H]1C(=O)NCc1cc(Cl)ccc1Cl)C1CCCCC1 | 0.95 µM |
| 0.07 nM | 1000 nM | 1% | CCNC(=O)COc1ccc(Cl)cc1CNC(=O)Cn1c(C)cnc(NCCc2ccccc2)c1=O | 1.2 µM |

| Compound | Ki (Prothrombin) | Ki (Trypsin) | Unbound (Homo sapiens [2]) | Concentration (Homo sapiens [1]) |
| --- | --- | --- | --- | --- |
| Cc1cc(C(F)(F)F)c(N)c(=O)n1CC(=O)NCc1cc(Cl)ccc1OCC(=O)NCCCN(C)C | 7.4 nM | 11000 nM | 18% | 0.7 µM |
| CCNC(=O)COc1ccc(Cl)cc1CNC(=O)Cn1c(C)ccc(NS(=O)(=O)Cc2ccccc2)c1=O | 0.04 nM | 2000 nM | – | 0.79 µM |
